Earlier results as cited in patent publication US20080253985A1, “Compositions for Lowering Serum Cholesterol and/or Triglycerides” (priority 2005, published 2008).
Like-named read-outs stand apart in the source and are kept apart here.

Tests used:
[1] = dose of 40 mg
[2] = hoFH patients; ezetimibe 10 mg/day added to atorvastatin or simvastatin 80 mg/day
[3] = clinical studies, dosages of 80 mg/day or greater

## O=C(NC1CCN(CCCCC2(C(=O)NCC(F)(F)F)c3ccccc3-c3ccccc32)CC1)c1ccccc1-c1ccc(C(F)(F)F)cc1 [BMS-201038, N-(2,2,2-Trifluorethyl)-9-[4-[4-[[[4′-(trifluoromethyl)[1,1′biphenyl]-2-Yl]carbonyl]amino]-1-piperidinyl]butyl]9H-fluorene-9-carboxamide]
Patients treated with 25 mg/day
  adverse events: gastrointestinal disturbances, abnormalities in liver function, and hepatic steatosis

## CC(C)c1c(C(=O)Nc2ccccc2)c(-c2ccccc2)c(-c2ccc(F)cc2)n1CCC(O)CC(O)CC(=O)O (centres unmarked) [atorvastatin, 7-[2-(4-fluorophenyl)-5-(1-methylethyl)-3-phenyl-4-(phenylcarbamoyl)-1H-pyrrol-1-yl]-3,5-dihydroxy-heptanoic acid]
[1]
  patients achieving goal attainment, LDL <70 mg/dL: 23%

## O=C1[C@H](CC[C@H](O)c2ccc(F)cc2)[C@@H](c2ccc(O)cc2)N1c1ccc(F)cc1 [ezetimibe]
[2]
  total reduction of LDL-C levels: 27%

## Cc1cc(C)c2c3ccccc3n(Cc3ccc([C@@H](C(=O)N[C@H](CO)c4ccccc4)C4CCCC4)cc3)c2n1 [implitapide, (2S)-2-cyclopentyl-2-[4-[(2,4-dimethyl-9H-pyrido[2,3-b]indol-9-yl)methyl]phenyl]-N-[(1S)-2-hydroxy-1-phenylethyl]ethanamide]
[3]
  adverse events: gastrointestinal disturbances, abnormalities in liver function, and hepatic steatosis
  therapeutic efficacy: therapeutically effective
